From article PMC9230784, “Development of a Novel Class of Pyridazinone Derivatives as Selective MAO-B Inhibitors” (Molecules, 2022)
Entries after “also recorded” stand apart in the source; their conditions may differ. Read-outs that look alike come from different tables or passages of the source.

What was measured:
[1] = for Prediction (BBB permeation class): PAMPA-BBB; for BBB permeation in words: PAMPA
[2] = target: T1, Recombinant human MAO-A (Homo sapiens, UniProt P21397); assay: biochemical; conditions: for remaining activity at 10 µM: 10 µM compound, mean ± standard error of duplicate or triple studies, read-out: Residual Activity at 10 µM (%) MAO-A
T1 construct: purchased Sigma-Aldrich (St. Louis, MO, USA)
T1 sequence (P21397 1-527): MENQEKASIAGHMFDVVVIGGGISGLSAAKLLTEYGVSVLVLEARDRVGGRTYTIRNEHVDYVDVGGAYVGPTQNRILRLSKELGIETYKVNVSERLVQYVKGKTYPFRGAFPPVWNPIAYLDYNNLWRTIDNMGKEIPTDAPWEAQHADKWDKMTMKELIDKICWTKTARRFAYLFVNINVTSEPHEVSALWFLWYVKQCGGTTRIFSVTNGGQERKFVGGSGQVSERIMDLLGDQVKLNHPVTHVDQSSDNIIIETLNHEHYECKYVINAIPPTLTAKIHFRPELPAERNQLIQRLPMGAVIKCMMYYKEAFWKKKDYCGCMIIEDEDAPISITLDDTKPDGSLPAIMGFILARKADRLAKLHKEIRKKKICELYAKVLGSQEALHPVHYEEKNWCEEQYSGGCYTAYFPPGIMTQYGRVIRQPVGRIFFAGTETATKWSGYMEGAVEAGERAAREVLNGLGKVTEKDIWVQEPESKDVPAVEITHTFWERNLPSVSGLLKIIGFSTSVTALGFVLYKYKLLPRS
Procedure: (§1) The IC50 values were determined by measuring the residual activity at different concentrations of the compounds and by using GraphPad Prism software 5.0. […] BACE1 inhibitory activities were tested by the BACE1 activity detection kit. The assay method was described previously. Recombinant human MAO-A and MAO-B, AChE from Electrophorus electricus, BChE from equine serum, BACE1, and their substrates and reference inhibitors were purchased from Sigma-Aldrich (St. Louis, MO, USA).
(§2) Lineweaver–Burk plots were used to examine the inhibition patterns, and secondary plots were used to calculate the Ki values with three inhibitor dosages.

[3] = target: T2, MAO-B (Homo sapiens, UniProt P27338); assay: biochemical; assay type: biochemical; conditions: for remaining activity at 10 µM: 10 µM compound, mean ± standard error of duplicate or triple studies, read-out: Residual Activity at 10 µM (%) MAO-B; for SI (selectivity index for MAO-B compared with MAO-A): MAO-B versus MAO-A
T2 construct: purchased Sigma-Aldrich (St. Louis, MO, USA)
T2 sequence (P27338 1-520): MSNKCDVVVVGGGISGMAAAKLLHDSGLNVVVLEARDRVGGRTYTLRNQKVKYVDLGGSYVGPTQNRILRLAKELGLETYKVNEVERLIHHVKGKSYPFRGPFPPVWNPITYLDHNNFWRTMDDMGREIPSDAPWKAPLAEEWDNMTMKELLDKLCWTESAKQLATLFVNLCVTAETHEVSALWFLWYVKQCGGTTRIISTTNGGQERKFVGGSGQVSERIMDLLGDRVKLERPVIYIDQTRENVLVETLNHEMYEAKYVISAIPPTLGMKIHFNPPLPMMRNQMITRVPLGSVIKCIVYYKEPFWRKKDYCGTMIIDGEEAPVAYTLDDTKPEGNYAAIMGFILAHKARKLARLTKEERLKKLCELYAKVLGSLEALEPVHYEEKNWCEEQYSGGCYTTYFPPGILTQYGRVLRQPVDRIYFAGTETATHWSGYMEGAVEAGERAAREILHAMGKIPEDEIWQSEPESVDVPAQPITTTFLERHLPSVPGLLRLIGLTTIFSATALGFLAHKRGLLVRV
Procedure: as §1, with “USA). […]” for “USA).”

[4] = target: T2, MAO-B; assay: Kinetic study, Lineweaver–Burk and secondary plots; assay type: biochemical; conditions: for Inhibition type for MAO-B: Lineweaver–Burk plots
Text: Five different substrate concentrations were used in the kinetics.
as §2

[5] = in vitro; conditions: PAMPA
[6] = target: T2, MAO-B; assay: Inhibition reversibility by dialysis; assay type: biochemical; conditions: for Reversibility of MAO-B inhibition: dialysis, AU versus AD; for Relative activity of dialyzed (AD) sample / Relative activity of undialyzed (AU) sample: preincubation 30 min at ~2 × IC50
Text: The relative activity of undialyzed (AU) as well as dialyzed (AD) samples were compared to establish reversibility profiles.
To determine reversibility patterns, the activities of dialyzed (AD) and undialyzed (AU) specimens were compared.

[7] = PAMPA-BBB; cited from earlier work
[8] = kynuramine 0.06 mM, highest concentration 40 µM, read-out: IC50 (µM) MAO-A
[9] = benzylamine 0.3 mM, highest concentration 40 µM, read-out: IC50 (µM) MAO-B

With `CC(=O)[C@H]1CC[C@H]2[C@@H]3CCC4=CC(=O)CC[C@]4(C)[C@H]3CC[C@]12C` [Progesterone, reference compound] the “Prediction (BBB permeation class)” value [1] was “CNS+ (CNS+, Pe (10^−6 cm/s) >4, good BBB permeable)”.
In the case of `O=C(Cn1nc(N2CCOCC2)ccc1=O)NN=Cc1ccc(F)cc1` [TR15], the IC50 [2] is reported as > 40 µM, the remaining activity at 10 µM [2] is reported as 85.6 ± 1.04% and the IC50 [3] is reported as 0.43 ± 0.05 µM. For the same compound, the remaining activity at 10 µM [3] was 12.5 ± 3.54%.
For `O=C(Cn1nc(N2CCN(c3cccc(C(F)(F)F)c3)CC2)ccc1=O)NN=Cc1ccccc1` [TR7], the remaining activity at 10 µM [2] was 55.4 ± 0.84%, the IC50 [2, 8] was 14.4 ± 3.55 µM and the remaining activity at 10 µM [3] was 90.7 ± 6.64%. The “SI (selectivity index for MAO-B compared with MAO-A)” value [3] was <0.36 and the IC50 [3, 9] was > 40 µM.
In the case of `O=C(Cn1nc(N2CCN(c3cccc(C(F)(F)F)c3)CC2)ccc1=O)NN=Cc1ccc(Cl)cc1` [TR8], the remaining activity at 10 µM [2] is reported as 52.9 ± 0.82%, the IC50 [2, 8] is reported as 12 ± 1.75 µM and the remaining activity at 10 µM [3] is reported as 69.1 ± 0.95%. The “SI (selectivity index for MAO-B compared with MAO-A)” value [3] was 0.60 and the IC50 [3, 9] was 20 µM.
Compound `COc1cccc(N2CCN(c3ccc(=O)n(CC(=O)NN=Cc4ccccc4)n3)CC2)c1` [TR1] has a remaining activity at 10 µM [2] of 82 ± 1.2%, an IC50 [2, 8] of 17.3 ± 1.2 µM and a remaining activity at 10 µM [3] of 80.5 ± 1.01%. For the same compound, the “SI (selectivity index for MAO-B compared with MAO-A)” value [3] was <0.43 and the IC50 [3, 9] was > 40 µM.
`COc1cccc(N2CCN(c3ccc(=O)n(CC(=O)NN=Cc4ccc(Br)cc4)n3)CC2)c1` [TR6] gave a remaining activity at 10 µM [2] of 51.7 ± 4.55%, an IC50 [2, 8] of 12.33 ± 0.11 µM and a remaining activity at 10 µM [3] of 70.2 ± 3.8%. For the same compound, the “SI (selectivity index for MAO-B compared with MAO-A)” value [3] was 0.81 and the IC50 [3, 9] was 15.1 ± 0.18 µM.
With `COc1ccc(C=NNC(=O)Cn2nc(N3CCN(c4cccc(C(F)(F)F)c4)CC3)ccc2=O)cc1` [TR10] the remaining activity at 10 µM [2] was 56 ± 2.26%, the IC50 [2, 8] was 13.3 ± 1.81 µM and the remaining activity at 10 µM [3] was 91.9 ± 7.09%. For the same compound, the “SI (selectivity index for MAO-B compared with MAO-A)” value [3] was <0.33 and the IC50 [3, 9] was > 40 µM.
With `Cc1ccc(C=NNC(=O)Cn2nc(N3CCN(c4cccc(C(F)(F)F)c4)CC3)ccc2=O)cc1` [TR11] the remaining activity at 10 µM [2] was 55.6 ± 2.28%, the IC50 [2, 8] was 18.5 ± 5.83 µM and the remaining activity at 10 µM [3] was 83.87 ± 0.56%. The “SI (selectivity index for MAO-B compared with MAO-A)” value [3] was 0.57 and the IC50 [3, 9] was 32 ± 1.21 µM.
For `COc1cccc(N2CCN(c3ccc(=O)n(CC(=O)NN=Cc4ccc(C)cc4)n3)CC2)c1` [TR5], the remaining activity at 10 µM [2] was 72.8 ± 1.02%, the IC50 [2, 8] was 18.19 ± 0.09 µM and the remaining activity at 10 µM [3] was 45.6 ± 2.56%. The “SI (selectivity index for MAO-B compared with MAO-A)” value [3] was 4.12 and the IC50 [3, 9] was 4.42 ± 0.23 µM.
With `CN(C)c1ccc(C=NNC(=O)Cn2nc(N3CCN(c4cccc(C(F)(F)F)c4)CC3)ccc2=O)cc1` [TR12] the remaining activity at 10 µM [2] was 52.5 ± 1.77%, the IC50 [2, 8] was 14.7 ± 2.96 µM and the remaining activity at 10 µM [3] was 85.3 ± 1.59%. For the same compound, the “SI (selectivity index for MAO-B compared with MAO-A)” value [3] was <0.37 and the IC50 [3, 9] was > 40 µM.
With `O=C(Cn1nc(N2CCOCC2)ccc1=O)NN=Cc1ccc(Cl)cc1` [TR16] the Ki [4] was 0.149 ± 0.016 µM, the “Inhibition type for MAO-B” value [4] was “competitive inhibitors” and the IC50 [2] was > 40 µM. The remaining activity at 10 µM [2] was 85 ± 3.08%, the Papp [5] was 10.6 ± 0.26 ×10⁻⁶ cm/s and the “BBB permeation in words” value [1] was “tendency to traverse the blood–brain barrier; also recorded: good CNS permeabilities”. The “Prediction (BBB permeation class)” value [1] was “CNS+ (CNS+, Pe (10^−6 cm/s) >4, good BBB permeable)”, the “Reversibility of MAO-B inhibition” value [6] was “reversible inhibitors” and the “Relative activity of dialyzed (AD) sample” value [6] was 73.4%. The “Relative activity of undialyzed (AU) sample” value [6] was 31.8%, the IC50 [3] was 0.17 ± 0.04 µM and the remaining activity at 10 µM [3] was 13.1 ± 0.64%. For the same compound, the “Fold higher IC50 for MAO-B than TR2” value ([3]; versus TR2) was 1.59 fold, the “Times higher MAO-B inhibitory activity over the basic structure TR14” value ([3]; versus TR14) was 235.3 times and the “Times higher MAO-B inhibitory activity over TR15” value ([3]; versus TR15) was 2.5 times.
For `COc1cccc(N2CCN(c3ccc(=O)n(CC(=O)NN=Cc4ccc(F)cc4)n3)CC2)c1` [TR3], the remaining activity at 10 µM [2] was 71.66 ± 0.71%, the IC50 [2, 8] was 19.7 ± 0.3 µM and the remaining activity at 10 µM [3] was 20.1 ± 1.15%. For the same compound, the “SI (selectivity index for MAO-B compared with MAO-A)” value [3] was 9.31 and the IC50 [3, 9] was 2.11 ± 0.51 µM.
`O=C(Cn1nc(N2CCN(c3cccc(C(F)(F)F)c3)CC2)ccc1=O)NN=Cc1ccc(F)cc1` [TR9] showed a remaining activity at 10 µM [2] of 72.28 ± 0.4%, an IC50 [2, 8] of 17.1 ± 0.21 µM and a remaining activity at 10 µM [3] of 46.5 ± 4.93%. For the same compound, the “SI (selectivity index for MAO-B compared with MAO-A)” value [3] was 17.08 and the IC50 [3, 9] was 1 ± 0.15 µM.
Compound `O=C(Cn1nc(N2CCN(c3cccc(C(F)(F)F)c3)CC2)ccc1=O)NN=Cc1ccc(Br)cc1` [TR13] has a remaining activity at 10 µM [2] of 74.2 ± 6.43%, an IC50 [2, 8] of 31 ± 4.33 µM and a remaining activity at 10 µM [3] of 100 ± 5.43%. The “SI (selectivity index for MAO-B compared with MAO-A)” value [3] was <0.78 and the IC50 [3, 9] was > 40 µM.
For `NCCc1ccc(O)c(O)c1` [Dopamine, reference compound], the “Bibliography Pe (×10^−6 cm/s)” value [7] is listed as 0.2 ×10^−6 cm/s and the “Prediction (BBB permeation class)” value [1] is listed as “CNS- (CNS-: Pe (10^−6 cm/s) <2, less BBB permeable)”.
With `O=C(Cn1nc(N2CCOCC2)ccc1=O)NN=Cc1ccccc1` [TR14] the remaining activity at 10 µM [2] was 97.47 ± 0.71%, the IC50 [2, 8] was > 40 µM and the remaining activity at 10 µM [3] was 107 ± 2.01%. The IC50 [3, 9] was > 40 µM.
In the case of `CCn1cc(C(=O)O)c(=O)c2cc(F)c(N3CCNC(C)C3)c(F)c21` (stereo not shown) [Lomefloxacin, reference compound], the “Prediction (BBB permeation class)” value [1] is reported as “CNS- (CNS-: Pe (10^−6 cm/s) <2, less BBB permeable)”.
Work on `COc1ccc(C=NNC(=O)Cn2nc(N3CCN(c4cccc(OC)c4)CC3)ccc2=O)cc1` [TR4] yielded a remaining activity at 10 µM [2] of 61 ± 3.54%, an IC50 [2, 8] of 16.5 ± 1.66 µM and a remaining activity at 10 µM [3] of 88.6 ± 8.61%. The “SI (selectivity index for MAO-B compared with MAO-A)” value [3] was <0.41 and the IC50 [3, 9] was > 40 µM.
With `COc1cccc(N2CCN(c3ccc(=O)n(CC(=O)NN=Cc4ccc(Cl)cc4)n3)CC2)c1` [TR2] the Ki [4] was 0.23 ± 0.004 µM, the “Inhibition type for MAO-B” value [4] was “competitive inhibitors” and the IC50 [2] was 22.9 ± 0.24 µM. For the same compound, the remaining activity at 10 µM [2] was 65.8 ± 0.66%, the Papp [5] was 9.33 ± 0.33 ×10⁻⁶ cm/s and the “BBB permeation in words” value [1] was “tendency to traverse the blood–brain barrier; also recorded: good CNS permeabilities”. The “Prediction (BBB permeation class)” value [1] was “CNS+ (CNS+, Pe (10^−6 cm/s) >4, good BBB permeable)”, the “Reversibility of MAO-B inhibition” value [6] was “reversible inhibitors” and the “Relative activity of dialyzed (AD) sample” value [6] was 75.0%. For the same compound, the “Relative activity of undialyzed (AU) sample” value [6] was 28.0%, the IC50 [3] was 0.27 ± 0.02 µM and the remaining activity at 10 µM [3] was -4.37 ± 4.13%. For the same compound, the “Fold increase of MAO-B inhibitory potency compared to the basic structure TR1” value ([3]; versus TR1) was 148.1 fold.
